Four compounds from BindingDB's records for doi:10.1016/j.ejmech.2017.05.061 (The University of Queensland, 2017) can be followed below.

In one assay the target is T1, Metallo-beta-lactamase AIM-1 (Pseudomonas aeruginosa, UniProt B5DCA0).
T1 sequence (B5DCA0 whole entry): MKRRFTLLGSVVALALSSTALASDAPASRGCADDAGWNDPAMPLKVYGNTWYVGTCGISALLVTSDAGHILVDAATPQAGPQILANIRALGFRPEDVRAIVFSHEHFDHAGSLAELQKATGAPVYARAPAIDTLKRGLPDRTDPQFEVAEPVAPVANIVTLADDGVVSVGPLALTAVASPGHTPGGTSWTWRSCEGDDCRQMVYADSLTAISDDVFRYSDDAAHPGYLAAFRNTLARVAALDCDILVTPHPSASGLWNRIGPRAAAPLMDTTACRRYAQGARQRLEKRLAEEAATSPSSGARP
The experiment in a line: Competitive inhibition of Pseudomonas aeruginosa recombinant AIM1 expressed in Escherichia coli BL21(DE3) using cefuroxime as substrate by UV/Vis multi-plate spectrophotometric method.
As a reminder, the Ki is a measure of affinity in units of concentration, obtained from inhibition or displacement. `N#Cc1c(-c2ccccc2)c(-c2ccccc2)n(Cc2ccccc2)c1N`: the Ki is 2.2 µM. The same measure, in the same setting: with `N#Cc1c(-c2ccccc2)c(-c2ccccc2)n(Cc2ccccc2)c1NC(=O)c1ccccc1` the figure was 1.6 µM; with `N#Cc1c(-c2ccccc2)c(-c2ccccc2)n(Cc2ccccc2)c1NC(=O)c1ccc([N+](=O)[O-])cc1`, 10.9 µM.

The target in another assay is Metallo-beta-lactamase type 2 (Aeromonas hydrophila, UniProt P26918). Nature of the assay: Competitive inhibition of Aeromonas hydrophila recombinant CphA expressed in Escherichia coli BL21(DE3) using meropenem as substrate by UV/Vis multi-plate spectrophotometric method.
Metallo-beta-lactamase type 2, sequence (P26918 whole entry): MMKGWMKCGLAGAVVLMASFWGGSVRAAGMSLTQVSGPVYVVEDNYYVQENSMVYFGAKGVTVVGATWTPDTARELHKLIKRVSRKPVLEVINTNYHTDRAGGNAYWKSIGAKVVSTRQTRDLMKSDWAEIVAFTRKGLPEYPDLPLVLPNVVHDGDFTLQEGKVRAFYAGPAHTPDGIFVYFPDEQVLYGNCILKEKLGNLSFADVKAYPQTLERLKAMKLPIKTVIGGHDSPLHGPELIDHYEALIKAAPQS
As for `N#Cc1c(-c2ccccc2)c(-c2ccccc2)n(Cc2ccccc2)c1N`, the Ki stood at 52 µM. Turning to `N#Cc1c(-c2ccccc2)c(-c2ccccc2)n(Cc2ccccc2)c1NC(=O)c1ccccc1`, the Ki was determined as 11 µM. Still for that read-out and setting: with `N#Cc1c(-c2ccccc2)c(-c2ccccc2)n(Cc2ccccc2)c1NC(=O)c1ccc(C(=O)c2ccccc2)cc1` the figure was 872 µM.
